Reference: a compilation of properties of binary mixtures (doi:10.1016/j.molliq.2012.10.026)

Test: xn = mol fraction of the nth substance listed
Conditions: 101 kPa, x1 = 0.5

O=C1CCCCCN1 + CCCC[N+](CCCC)(CCCC)CCCC.[Cl-]
Conditions | electrical conductivity [S/m]
293.15 K | 0.0409
295.65 K | 0.0459
298.15 K | 0.0554
300.65 K | 0.0726
303.15 K | 0.0934
305.65 K | 0.116
308.15 K | 0.142
310.65 K | 0.172
318.15 K | 0.31
320.65 K | 0.368
323.15 K | 0.431
325.65 K | 0.49
330.65 K | 0.61
333.15 K | 0.707
